Experimental data published in article PMC6434189, “Peperomin E and its orally bioavailable analog induce oxidative stress-mediated apoptosis of acute myeloid leukemia progenitor cells by targeting thioredoxin reductase” (Redox Biology, 2019).
Entries after “also recorded” stand apart in the source; their conditions may differ. One block for each compound: values may come before it.

What was measured:
KG-1a CD34+ cells = experiment: KG-1a-Luc CD34+ xenograft in NOD/SCID mice, bioluminescence; assay type: in vivo; conditions: 50 mg/kg i.g. daily, 5 weeks
Method: Six-week-old female NOD-SCID mice (obtained from the model animal research center of Nanjing University, Nanjing, China) were acclimated for 1 week and housed in groups of five. All animal studies were conducted under the guidelines approved by the Animal Care and Use Committee of the Nanjing University of Chinese Medicine (Nanjing, China). The mice were sublethally irradiated with 2.7 Gy before transplantation.
KG-1a cells tagged with a luciferase reporter gene (KG-1a-Luc) were obtained from Cobioer biotechnology Inc. (Nanjing, Jiangsu, China) and cultured in 90% IMDM supplemented with 10% FBS, 0.05 mM 2-Mercaptoethanol, and 1 μg/mL Puromycin, and grown at 37 °C in a 5% CO2 humidified incubator. CD34 positive cells were enriched (following the 2.3 method) and injected via the tail vein in a final volume of 0.2 mL PBS with 0.5% FBS. For analyzing the luciferase signal, 5 × 10^6 cells KG-1a-Luc cells were used for each recipient animal. Seven days after transplantation, mice with KG-1a-Luc implants were subjected to bioluminescent analysis based on the luciferase signal. Briefly, mice received D-luciferin phosphate solution (100 mg/kg) intravenously 10 min prior to imaging. They were then anesthetized with isoflurane inhalation and imaged using a Xenogen IVIS scanner (PerkinElmer, Waltham, MA, USA). The next day, mice showing successful implantations were randomly divided into the control, DMAPE low dose, DMAPE high dose, and Ara-C treatment groups (n = 5 in each group), which received daily i. g. saline buffer, DMAPE phosphate salt 25 mg/kg, DMAPE phosphate salt 50 mg/kg and Ara-C (50 mg/kg), respectively. The growth of KG-1a-Luc cells was monitored every week by their luciferase signal. Five weeks after the implantation, all mice were sacrificed and their livers, kidneys, and bone marrow were excised for ex vivo bioluminescent imaging. The bioluminescent signal intensity was all quantified using the Living Image software (version 4.2, Carliper Life Science, Inc., Hopkinton, MA, USA) and is presented as photons/second/cm^2/sr (sr denotes steradian).

[1] = tested on: CD34+ NBM cells and hBMSCs; experiment: CCK-8 cell viability assay on normal CD34+ NBM cells and hBMSCs; assay type: cell-based, human; conditions: 48 h, CCK-8
Method: (§1) The mononuclear cells were further enriched for CD34 positive cells using the MACS CD34 MicroBead kit following the manufacturer's protocol. Enriched CD34 cell-purity was measured by flow cytometry-based quantification of cells stained using an anti-CD34-FITC antigen. Isolated CD34^+ cells were pre-incubated in the IMDM-based serum-free media for 1 h before the addition of drugs. PepE was dissolved in DMSO to make a 100 mM stock solution and stored in aliquots at – 20 °C. The 100 mM stock solution was diluted with DMSO to 10 mM and then diluted with PBS to 1 mM before treating the cells at the indicated concentrations. DMAPE and Ara-C were diluted in PBS to 1 mM concentration before use.
(§2) Unless otherwise mentioned, 2 × 10^4 cells were seeded at 96-well plates (Corning, New York, USA) in the IMDM-based serum-free media for 1 h. Then, the cells were incubated with different concentrations of PepE and DMAPE at 37 °C in a 5% CO2 incubator for 48 h. At the end of the treatment, 10 μL CCK-8 solution was added to each well and incubated for an additional 2 h at 37 °C, and the absorbance at 450 nm was measured with a microplate reader (Thermo Scientific, Multiskan GO, Finland). Inhibition ratio (%) was calculated as [(absorbance of control − absorbance of the test sample)/absorbance of control] x 100%.

primary CD34+ AML cells = experiment: CCK-8 cell viability assay on primary CD34+ AML cells; assay type: cell-based, human; conditions: 48 h, CCK-8
Method: as §1, §2

NADPH-reduced TrxR1 = target: T1, NADPH-reduced TrxR1 (Homo sapiens, UniProt Q16881); experiment: Bio-layer interferometry (BLI) binding assay, TrxR1; conditions: NADPH-reduced TrxR1 0.9 μM, 25 °C
T1 construct: purchased Abcam ab204206
T1 sequence (Q16881 1-499 isoform Q16881-5): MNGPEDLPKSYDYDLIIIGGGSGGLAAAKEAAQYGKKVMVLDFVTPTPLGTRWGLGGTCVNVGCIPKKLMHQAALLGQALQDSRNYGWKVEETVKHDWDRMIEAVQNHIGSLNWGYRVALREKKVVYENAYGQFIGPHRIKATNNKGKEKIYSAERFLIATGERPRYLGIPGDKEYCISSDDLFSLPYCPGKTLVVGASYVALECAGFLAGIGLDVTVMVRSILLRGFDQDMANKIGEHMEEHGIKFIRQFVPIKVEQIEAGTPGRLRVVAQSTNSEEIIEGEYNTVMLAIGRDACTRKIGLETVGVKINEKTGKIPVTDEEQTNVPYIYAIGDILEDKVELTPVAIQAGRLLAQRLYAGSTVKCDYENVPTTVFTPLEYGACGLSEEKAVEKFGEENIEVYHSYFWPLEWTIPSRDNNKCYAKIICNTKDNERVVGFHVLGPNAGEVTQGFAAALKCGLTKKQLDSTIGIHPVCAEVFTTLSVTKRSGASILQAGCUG
Method: The binding kinetics of PepE or PepA to purified recombinant proteins were determined using BLI on an Octet RED 96 system (ForteBio, Shanghai, China) following the manufacturer's protocol. All interaction analyses were performed at 25 °C in PBS with 0.2% DMSO. Purified recombinant proteins (0.9 μM, the TrxR1 full length and TrxR1 protein fragment were pre-reduced by 400 μM of NADPH before test) were pre-labeled with biotin using […] (Abcam) following the manufacturer's instruction. Loading of the Dip and Read Super Streptavidin (SSA) Biosensors (ForteBio) were conducted by exposing biotinylated proteins to biosensor tips for 2 h. The 96-well microplates used in the Octet were filled with 200 μL sample or buffer per well and agitated at 1000 rpm. The loaded biosensors were washed in buffer for 600 s and transferred to wells containing PepE at concentrations of 0.625, 1.25, 2.5, 5, and 10 μM or PepA at concentrations of 1.25, 2.5, 5, 10 and 20 μM, respectively, in the buffer. […] Reference measurements were conducted using the buffer instead of PepE (or PepA). A parallel set of SA unloaded biosensors was prepared to act as a control. The sample-sensorgrams were corrected by subtracting the double reference curve. Kinetic parameters (Kon and Kdis) and affinity (KD) were determined from a global fit to a 1:1 binding model of the data between proteins and PepE using Octet software (ForteBio).

Sec residue in TrxR1 = target: T2, Sec residue in TrxR1 (Homo sapiens, UniProt Q16881); experiment: BIAM labeling assay; assay type: biochemical; conditions: pH 6.5; PepE 1, 5, 10 μM; DNCB 5 μM
T2 construct: purchased Abcam ab204206
T2 sequence (Q16881 1-499 isoform Q16881-5): T1 sequence (Q16881 1-499 isoform Q16881-5)
Method: To further assess whether the Sec residue in TrxR1 was the modified site of PepE. The BIAM labeling assay was performed according to previous report. Briefly, 100 μM BIAM stock solution in 100 mM Tris-HCl, 1 mM EDTA buffer (pH = 6.5) was freshly prepared before each test. The TrxR1 protein (1 μM) was incubated with different concentrations (1, 5, 10 μM) of PepE or 5 μM of DNCB (positive control) and DMSO (negative control) in 50 mM Tris-HCl, 1 mM EDTA buffer (pH = 7.5) and 400 μM NADPH at 37 °C. After incubation, 4 μL of the reaction mixture was withdrawn and added mixed with 20 μM of BIAM solution in 100 mM Tris-HCl, 1 mM EDTA assay buffer (pH = 6.5) for 30 min at 37 °C to allow selective alkylation of free Sec residues. The reaction was stopped by adding the IAA solution (final concentration 50 mM). The samples were then denatured in SDS buffer, boiled and subjected to SDS-PAGE and western-blotting on a 7.5% gel, and the separated proteins were transferred to nitrocellulose membrane. The enzymes labeled with BIAM were detected with HRP-conjugated streptavidin and enhanced chemiluminescence detection. The bands were analyzed using Gel-pro 32 software.

TrxR1 = conditions: read-out: TrxR1 inhibition IC50; cited from earlier work

Structure (SMILES): Nc1ccn([C@@H]2O[C@H](CO)[C@@H](O)[C@@H]2O)c(=O)n1 [Ara-C, Cytarabine, reference compound]
in vivo efficacy against KG-1a CD34+ cells (KG-1a CD34+ cells): not obvious; also recorded: not significant | toxicity on NBM and hBMSC cells in side-by-side comparison [1]: more toxic than PepE and DMAPE | toxicity against AML progenitor cells (primary CD34+ AML cells): no apparent toxicity

Kd (NADPH-reduced TrxR1): 111000 nM
Structure (SMILES): COc1cc(C(c2cc(OC)c3c(c2)OCO3)[C@@H]2COC(=O)[C@H]2C)cc2c1OCO2 [PepA, Peperomin A, reference compound]

Structure (SMILES): O=[N+]([O-])c1ccc(Cl)c([N+](=O)[O-])c1 [DNCB, 1-chloro-2,4-dinitrobenzene, reference compound]
BIAM alkylation of Sec residue of TrxR1 (Sec residue in TrxR1): significantly block

Structure (SMILES): C=C1C(=O)O[C@H]2[C@H]1CC/C(C)=C/CC[C@@]1(C)O[C@@H]21 [parthenolide, Parthenolide]
IC50 (TrxR1): ~3000 nM

Structure (SMILES): CC(C)=CC[C@@H](O)C1=CC(=O)c2c(O)ccc(O)c2C1=O [shikonin]
IC50 (TrxR1): ~1600 nM
